This passage reports melting point results from a melting point compilation (Tetko et al.; mined from patent text by program, amines drawn as free bases though some values may be those of a salt).

Where only a bound is given, the exact number is not on record here.

As a reminder, the melting point is the temperature of the solid-liquid transition. Turning to `CC(CCCCc1ccccc1)c1cc(O)c2c(c1)OC(C)(C)C1CCC(=O)C=C21` (centres undefined), the melting point fell in the range of 204 to 208 °C.

For the compound `Sc1nc(-c2ccc(Cl)c(Cl)c2)c(-c2cccs2)[nH]1`, the melting point lay within 263 to 265 °C. With `O=C(O)CN(c1ccccc1)S(=O)(=O)c1ccccc1`, the melting point is 166 to 167 °C.

The compound `CCC(CC)c1ccc(Cl)c2[nH]c(=O)n(C)c12` registered a melting point of 165 to 166 °C. Then `CCCSc1nc(Sc2ccc(OC)cc2)c(C(=O)O)n1Cc1cc2c(cc1Cl)OCO2`, with 164 °C; and `CCOC(=O)Cn1c(-c2cccc(Cl)c2)nc2cccnc21`, with 98 to 99.8 °C; and `Clc1nc2ccccc2c2c(CCN3CCN(Cc4ccccc4)CC3)n(-c3ccccc3)nc12`, with 75 to 77 °C.

`O=C(Cl)COc1nn(Cc2ccccc2)c2ccccc12` displayed a melting point of 78 to 79 °C. To `CN1c2ccc(-c3cccc4ccccc34)cc2S(=O)c2cc(-c3cccc4ccccc34)ccc21` belongs 221 to 225 °C; to `O=C(NO)c1cc(Oc2ccc(C(F)(F)F)cc2Cl)ccc1O`, 188 to 191 °C; to `NC(=O)NC(=O)c1ccncc1`, 245 to 247 °C.

In turn, `COc1c(O)c(C=O)cc2ccoc12` yielded a melting point of 60 to 62 °C. `Cc1[nH]cc2c1-c1ccc(Cl)cc1C(c1ccccc1Cl)=NC2` returned a melting point of 219 to 222 °C. To `O=C(OCc1ccccc1)C1=C(S(=O)c2ccccc2)CC2CC(=O)N12` (centres undefined) belongs 129 to 131 °C; to `N#CC(Cc1cccc(F)c1)n1nnc2cc3c(cc2c1=O)OC1CCCN1C3=O` (centres undefined), 182 to 184 °C. Then `N#CC(C(=O)Nc1ccccc1)C(=O)c1nn(-c2ccccc2)c2c1CSc1ccc(NC(=O)CCC(=O)O)cc1-2` (centres undefined), with 230 to 233 °C; and `C[C@H](O)CN1CCN(c2ccc(Nc3ncc4ccc(-c5ccccc5N(C)S(C)(=O)=O)n4n3)cc2F)CC1`, with 165 °C; and `CC12C=CC(=O)C=C1C(N=[N+]=[N-])CC1C2CCC2(C)C(=O)CCC12` (centres undefined), with 168 to 170 °C. On to `Nc1ncc(Cl)cc1O`, for which the melting point fell in the range of 196 to 201 °C.

As to `N#Cc1cc(C(=O)c2ccccc2)ccc1[N+](=O)[O-]`, the melting point lay in the range of 117 to 119 °C. On to `COC(=O)C(C)(C)c1ccc(C(=O)Nc2cn3cc(C)ccc3n2)cc1`, for which the melting point lay within 228 to 230 °C. Compound `CCOc1cc([C@@H]2CC=CC[C@H]2[N+](=O)[O-])ccc1OC` (racemic) gave a melting point of 66 to 67 °C.

In the case of `CCOC(=O)c1sccc1S(N)(=O)=O`, the melting point was 136 °C.

With `COC(=O)CC/C(C)=C/Cc1c(NC=O)c2c(c(C)c1OC)COC2=O`, the melting point was in the range of 187 to 189 °C.

In turn, `Cn1cc(Oc2ccccc2)c(=S)c(-c2cccc(C(F)(F)F)c2)c1` had a melting point of 127 to 131 °C. To `CC=C1C(=O)c2ccccc2OC1c1ccccc1` (centres undefined) belongs 47 to 49 °C; to `O=C(O)CC1=CCCCC1n1nc(-c2c(-c3ccccc3)nn3ccccc23)ccc1=O` (centres undefined), 164 to 166 °C. Compound `CC(=O)OCc1ccc2oc(=O)c(C(=O)Oc3cc(F)ccc3Br)cc2c1` registered a melting point of 148 to 150 °C. To `COc1nc(C(C)(C)O)cnc1NS(=O)(=O)c1cccc(Cl)c1Cl` belongs 192 to 193 °C; to `Cc1cc(OCCc2nc(-c3ccccc3)oc2C)ccc1OCC(=O)O`, 133 °C. Then `CC(C)(C)OC(=O)NC(CI)c1ccc(F)cc1` (centres undefined), with 138 to 139 °C; and `CCOCn1c(Sc2ccc(Cl)c(Cl)c2)c(Br)c(C#N)c1-c1ccc(Cl)cc1`, with 105 to 107 °C; and `N#CCc1nc(C(=O)c2ccc(F)cc2)no1`, with 78 to 80 °C. To `N#Cc1cccc(S)c1` belongs 91 to 95 °C; to `CCOc1c(/C=C\CO)cc(C(C)(C)C)cc1C(C)(C)C`, 93 to 94 °C. `NS(=O)(=O)C1=CC2=C(OCCO)CCSC2S1` (centres undefined): the melting point is 110 to 113 °C. Then `NC(CCCCNC(=O)NC(Cc1c[nH]c2ccccc12)C(=O)O)C(=O)O` (centres undefined), with 133 °C. Then `Cc1ccc(S(=O)(=O)Nc2ccc(C#N)cc2Cl)cc1`, with 186 to 187 °C; and `Cc1nc2n(n1)C(N1CCN(C)CC1)=Nc1ccccc1C2`, with 185 to 187 °C. Then `CC(=O)NC1CCCc2sc(C(C)=O)cc21` (centres undefined), with 168 to 172 °C. In the case of `O=[N+]([O-])c1cccc2nc[nH]c12`, the melting point lay within 242 to 245 °C. To `N#CC12CCN(CC1)CC2Cc1ccccc1` (centres undefined) belongs 82.5 to 84 °C; to `CC(C)CN(C(=O)N(CCCl)N=O)C1O[C@H](CO)[C@H](O)[C@H](O)[C@H]1O` (some centres undefined), 48 to 53 °C; to `O=C1NC(=O)C(O)(c2c[nH]c3ccc(Br)cc23)C(=O)N1`, more than 250 °C. Then `COc1ccc(C(=C(c2ccc(OC)cc2)C(F)(F)F)c2ccc(OCCN(C)C)cc2)cc1`, with 77 to 79 °C; and `Nc1ncc(-c2ccc(F)cc2)cc1[N+](=O)[O-]`, with 232 °C. `COc1cc(-c2cc3ccccc3[nH]2)ccc1OS(C)(=O)=O` returned a melting point of 194 °C. Then `O=S1(=O)CCN(c2nc3c(-c4nc(C5CC5)no4)ncn3c3ccccc23)CC1`, with 328 to 335 °C; and `COc1ccc(/C=C/C(=O)Nc2ccccc2C(=O)O)cc1`, with 194 to 195 °C; and `COC(=O)c1cc([N+](=O)[O-])cn1C`, with 122 to 124 °C.

With `O=C1Nc2cc(-c3ccc(C(F)(F)F)cc3)ccc2C1c1cc(Cl)ccc1O` (centres undefined), the melting point was in the range of 221 to 225 °C. Then `CCOC(=O)Cc1c(C)[nH]c(C(=O)c2ccccc2)c1C`, with 126 to 129 °C.

Regarding `COc1c(C)c(C(=O)c2ccc3[nH]c(=O)n(N)c(=O)c3c2)n2ccccc12`, the melting point stood at 220 °C. Then `COc1ccc(CN2CCN(CC(=O)N3CC=C(c4cccc(C(F)(F)F)c4)n4ncc(C#N)c43)CC2)cc1`, with 151 to 153 °C; and `N#Cc1cnn2c(-c3cccc(C(F)(F)F)c3)ccnc12`, with 141 to 142 °C; and `Nc1ccc(C2=NNC(=O)CC2)cc1[N+](=O)[O-]`, with more than 330 °C. Then `COc1cc(C(=O)O)ccc1Cn1ncc2ccc(NC(=O)CC3CCCC3)cc21`, with 254 to 256 °C.

For the compound `CCC(CC)n1ncn(-c2ccc(N3CCN([C@H](C)[C@@](O)(Cn4cncn4)c4ccc(F)cc4F)CC3)cc2)c1=O`, the melting point was in the range of 110 to 113 °C. Then `C=C(C(=O)OC)C(O)c1c(C)n(C(=O)OC(C)(C)C)c2ccc(C)c(O)c12` (centres undefined), with 155 to 156 °C; and `Cc1oc(-c2ccccc2)nc1COc1ccc2c(-c3ccccc3)c(COc3nn(-c4ccccc4)cc3C=O)oc2c1`, with 176 to 177 °C; and `Cc1ccccc1C(=O)Nc1ccc(C(=O)N2CCCCc3sccc32)cc1`, with 181 to 182 °C. To `NCC(=NNc1ccccc1)c1ccccc1` belongs 106 to 108 °C; to `O=C(Cn1ccnc1[N+](=O)[O-])NCC(F)(F)C(F)(F)F`, 136 to 137 °C; to `CCN(CC)C(=O)c1nc(-c2ccccc2)nc2ccccc12`, 127 °C.

`O=c1c(Cl)nc2cccnc2n1-c1ccc(Cl)cc1` gave a melting point of more than 300 °C. To `COC(=O)c1sc2c(c1O)CCC2` belongs 73 to 75 °C; to `COC(=O)C#CC(=O)c1cccc(Cl)c1`, 73 to 75 °C. In the case of `O=C(O)c1nc2cc(O)c(O)cc2nc1C(=O)O`, the melting point is more than 300 °C. Then `CCN(C)c1ccc2c(c1)CN(c1cccc(Br)c1COC(C)=O)C2=O`, with 97 to 99 °C; and `COc1cc2c(cc1Cl)CCN(C)CC2c1ccc(Br)cc1` (centres undefined), with 116 to 118 °C; and `CCNc1cc(NS(=O)(=O)c2ccc(N)cc2)nc(NC(C)C)n1`, with 266 to 267 °C. To `COCC1CN(c2ccc(OCCCC3(C)OC(COS(=O)(=O)c4ccc(C)cc4)C(COS(=O)(=O)c4ccc(C)cc4)O3)cc2)C(=O)O1` (centres undefined) belongs 104 °C; to `O=C(OCc1ccccc1)N1CCc2c(sc3nc(CCl)c(Cl)c(-c4ccc(OCC(F)(F)F)cc4)c23)C1`, 166 to 167 °C.

The compound `COc1cc(C2C3=C(COC3=O)N(C)c3cc4c(cc32)OCO4)cc(OC)c1OC` (centres undefined) showed a melting point of 226 °C.

Consider `COc1cc(-c2cc(C3CCOC3)no2)cc2oc(=O)c(C)c(C)c12` (centres undefined), for which the melting point amounted to 122 °C. To `COC(=O)CC1CCc2cc(C(=O)c3ccccc3)c(O)cc21` (centres undefined) belongs 148 to 150 °C. To `O=C(CC(=O)Oc1cc(O)cc(O)c1)Oc1cc(O)cc(O)c1` belongs 258 to 260 °C; to `COc1cccc2c1nc(C(F)F)n2-c1nc(-c2cncnc2)cc(N2CCOCC2)n1`, 222 to 224 °C; to `C=CCNC(=O)CCNc1nc(NCC=C)nc2c(C)csc12`, 95 to 96 °C. As to `COC(=O)CC(O)/C=C/c1c(-c2ccc(F)cc2)n(C(C)C)c(=O)c2ccccc12` (centres undefined), the melting point is 167 to 168 °C. To `CC(=O)COc1cc2c3ccccc3n(Cc3ccccc3)c2cn1` belongs 141 to 142 °C; to `O=C(O)CCc1cccc(-c2nc(=O)c3ccccc3s2)c1`, 180 °C; to `ClCCCCCOc1ccc(C2=C(c3ccccc3)CCCc3cc(OC4CCCCO4)ccc32)cc1` (centres undefined), 99 to 101 °C. Then `Cc1cc(-c2ccc(Cl)c(Cl)c2)nc(-n2cnc(-c3ccc(S(N)(=O)=O)s3)c2)n1`, with 254 °C; and `Cc1noc(C)c1-c1cn(Cc2ccccc2)c(=O)c2cnccc12`, with 174 to 177 °C. To `COc1ccc(C=C2c3ccccc3C(=O)c3ccccc32)cc1OCC(=O)O` belongs 227 to 230 °C; to `NCCC(O)c1ccccc1` (centres undefined), 92 to 94 °C. Consider `C=Cc1c2c(c(C)c(C)c1N1CCN(c3ccc(OC)cc3)CC1)OC(C)(C)C2=O`, for which the melting point fell in the range of 147 to 148 °C. To `FC(F)(F)c1cc(Cl)c(Oc2cc(C3CC3)[nH]n2)c(Cl)c1` belongs 119 to 121 °C.
